Test results taken from publication PMC10507085, “Pharmacological inhibition of TBK1/IKKε blunts immunopathology in a murine model of SARS-CoV-2 infection” (Nature Communications, 2023).

Experiments:
Assay in all cases: biochemical
Design in all cases: KINOMEscan competition binding, DNA-tagged kinase against immobilised ligand, qPCR read-out
Details in all cases: read-out: Percent Control
[1] = molecular target: T1, ABL1-nonphosphorylated (Homo sapiens, UniProt P00519)
T1 construct: nonphosphorylated
Procedure: (§1) The KINOMEscan^TM kinase assays[65] were performed by Eurofins DiscoverX Corporation. For each kinase, the assay relies on the ability of the tested compound to compete against an immobilised ligand for binding to the DNA-tagged kinase. RT-qPCR is then used to measure the quantity of kinase molecules bound to the immobilised ligand, which is decreased if the tested compound competed with the kinase-ligand interaction. An 11-point 3-fold serial dilution of IDX compound was prepared in 100% DMSO at 100× final test concentration and subsequently diluted to 1× in the assay. […]

[2] = molecular target: CAMK4 (Homo sapiens, UniProt Q16566)
Procedure: as §1

[3] = molecular target: CDK15 (Homo sapiens, UniProt Q96Q40)
Procedure: as §1

[4] = molecular target: CDK5 (Homo sapiens, UniProt Q00535)
Procedure: as §1

[5] = molecular target: CDKL3 (Homo sapiens, UniProt Q8IVW4)
Procedure: as §1

[6] = molecular target: CHEK2 (Homo sapiens, UniProt O96017)
Procedure: as §1

[7] = molecular target: EIF2AK1 (Homo sapiens, UniProt Q9BQI3)
Procedure: as §1

[8] = molecular target: EPHB3 (Homo sapiens, UniProt P54753)
Procedure: as §1

[9] = molecular target: T2, JAK2(JH1domain-catalytic) (Homo sapiens, UniProt O60674)
T2 construct: JH1 domain catalytic
Procedure: as §1

[10] = molecular target: MAPK10 (Homo sapiens, UniProt P53779)
Procedure: as §1

[11] = molecular target: MARK1 (Homo sapiens, UniProt Q9P0L2)
Procedure: as §1

[12] = molecular target: NEK10 (Homo sapiens, UniProt Q6ZWH5)
Procedure: as §1

[13] = molecular target: NEK2 (Homo sapiens, UniProt P51955)
Procedure: as §1

[14] = molecular target: NUAK1 (Homo sapiens, UniProt O60285)
Procedure: as §1

[15] = molecular target: PKMYT1 (Homo sapiens, UniProt Q99640)
Procedure: as §1

[16] = molecular target: T3, RPS6KA4(Kin.Dom.2-C-terminal) (Homo sapiens, UniProt O75676)
T3 construct: Kin.Dom.2 C-terminal
Procedure: as §1

[17] = molecular target: SGK1 (Homo sapiens, UniProt O00141)
Procedure: as §1

[18] = molecular target: STK17B (Homo sapiens, UniProt O94768)
Procedure: as §1

[19] = molecular target: STK25 (Homo sapiens, UniProt O00506)
Procedure: as §1

[20] = molecular target: YES1 (Homo sapiens, UniProt P07947)
Procedure: as §1

Sequence of CHEK2 (O96017 whole entry): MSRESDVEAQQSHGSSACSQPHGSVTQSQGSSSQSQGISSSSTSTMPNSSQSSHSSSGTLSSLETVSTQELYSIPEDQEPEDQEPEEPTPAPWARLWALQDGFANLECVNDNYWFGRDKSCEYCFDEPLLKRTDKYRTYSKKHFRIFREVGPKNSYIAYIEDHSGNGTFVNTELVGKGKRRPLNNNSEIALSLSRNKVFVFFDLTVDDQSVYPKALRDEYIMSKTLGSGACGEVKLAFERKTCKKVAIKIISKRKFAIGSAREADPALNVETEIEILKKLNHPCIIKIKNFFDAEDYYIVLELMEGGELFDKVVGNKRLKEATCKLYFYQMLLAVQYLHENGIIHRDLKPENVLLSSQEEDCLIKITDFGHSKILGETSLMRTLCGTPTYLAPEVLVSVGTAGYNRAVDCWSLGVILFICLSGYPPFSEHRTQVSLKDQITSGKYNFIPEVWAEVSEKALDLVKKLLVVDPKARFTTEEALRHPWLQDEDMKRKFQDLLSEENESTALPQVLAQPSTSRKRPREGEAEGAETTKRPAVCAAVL
Sequence of MAPK10 (P53779 whole entry): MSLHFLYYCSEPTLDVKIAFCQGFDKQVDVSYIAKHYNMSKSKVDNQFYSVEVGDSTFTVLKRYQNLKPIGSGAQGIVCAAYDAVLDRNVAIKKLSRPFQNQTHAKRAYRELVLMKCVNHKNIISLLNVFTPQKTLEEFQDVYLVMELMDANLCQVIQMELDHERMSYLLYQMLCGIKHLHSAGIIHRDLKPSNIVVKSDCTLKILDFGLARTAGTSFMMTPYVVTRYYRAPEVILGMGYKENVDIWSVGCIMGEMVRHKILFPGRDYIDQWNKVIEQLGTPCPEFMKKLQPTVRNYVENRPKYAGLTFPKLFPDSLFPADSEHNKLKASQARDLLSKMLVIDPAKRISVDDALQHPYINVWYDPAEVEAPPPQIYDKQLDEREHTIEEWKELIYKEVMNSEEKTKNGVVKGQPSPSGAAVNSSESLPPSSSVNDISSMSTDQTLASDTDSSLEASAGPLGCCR
Sequence of YES1 (P07947 whole entry): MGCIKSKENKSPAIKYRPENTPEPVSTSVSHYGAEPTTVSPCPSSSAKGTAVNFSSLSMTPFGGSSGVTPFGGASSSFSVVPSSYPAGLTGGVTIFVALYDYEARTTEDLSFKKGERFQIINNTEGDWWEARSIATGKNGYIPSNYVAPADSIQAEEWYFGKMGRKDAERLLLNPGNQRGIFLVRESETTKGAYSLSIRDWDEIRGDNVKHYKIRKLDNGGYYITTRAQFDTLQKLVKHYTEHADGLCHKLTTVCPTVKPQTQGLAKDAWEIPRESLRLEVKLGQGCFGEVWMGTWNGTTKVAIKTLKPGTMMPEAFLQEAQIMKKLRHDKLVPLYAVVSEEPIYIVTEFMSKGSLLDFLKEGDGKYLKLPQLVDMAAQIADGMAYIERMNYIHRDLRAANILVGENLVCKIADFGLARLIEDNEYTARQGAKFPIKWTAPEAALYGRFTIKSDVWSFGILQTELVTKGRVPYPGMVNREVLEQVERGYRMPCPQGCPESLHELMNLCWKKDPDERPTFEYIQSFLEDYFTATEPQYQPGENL
Sequence of STK25 (O00506 whole entry): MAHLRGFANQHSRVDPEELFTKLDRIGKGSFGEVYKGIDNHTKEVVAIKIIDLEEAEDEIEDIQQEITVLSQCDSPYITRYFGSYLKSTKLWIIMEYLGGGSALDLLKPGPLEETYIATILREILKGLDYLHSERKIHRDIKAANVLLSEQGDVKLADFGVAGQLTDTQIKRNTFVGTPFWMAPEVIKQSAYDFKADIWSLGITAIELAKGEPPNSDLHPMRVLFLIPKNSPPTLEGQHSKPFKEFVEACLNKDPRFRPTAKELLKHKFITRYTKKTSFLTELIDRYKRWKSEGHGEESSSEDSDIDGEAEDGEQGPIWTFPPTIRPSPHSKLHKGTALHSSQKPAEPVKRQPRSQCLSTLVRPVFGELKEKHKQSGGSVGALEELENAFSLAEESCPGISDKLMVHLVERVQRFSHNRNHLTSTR
Sequence of EIF2AK1 (Q9BQI3 whole entry): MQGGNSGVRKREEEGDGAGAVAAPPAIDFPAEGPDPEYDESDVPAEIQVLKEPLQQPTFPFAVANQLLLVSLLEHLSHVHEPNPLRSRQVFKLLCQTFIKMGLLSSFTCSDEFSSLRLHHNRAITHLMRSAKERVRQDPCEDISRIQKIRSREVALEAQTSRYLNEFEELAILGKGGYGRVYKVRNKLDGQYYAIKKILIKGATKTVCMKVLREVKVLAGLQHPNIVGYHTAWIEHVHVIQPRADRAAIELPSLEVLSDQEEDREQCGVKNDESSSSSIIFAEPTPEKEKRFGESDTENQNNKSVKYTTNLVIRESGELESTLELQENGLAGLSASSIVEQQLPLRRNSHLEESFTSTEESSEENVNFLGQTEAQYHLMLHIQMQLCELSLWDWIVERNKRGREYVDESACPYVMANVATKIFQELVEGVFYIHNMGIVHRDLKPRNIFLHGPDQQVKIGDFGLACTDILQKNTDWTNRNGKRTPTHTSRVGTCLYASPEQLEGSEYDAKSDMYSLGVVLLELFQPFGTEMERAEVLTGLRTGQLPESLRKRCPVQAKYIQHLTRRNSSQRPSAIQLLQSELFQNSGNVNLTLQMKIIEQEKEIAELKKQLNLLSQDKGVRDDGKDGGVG
T2 sequence (O60674 whole entry, the tested form may be a part): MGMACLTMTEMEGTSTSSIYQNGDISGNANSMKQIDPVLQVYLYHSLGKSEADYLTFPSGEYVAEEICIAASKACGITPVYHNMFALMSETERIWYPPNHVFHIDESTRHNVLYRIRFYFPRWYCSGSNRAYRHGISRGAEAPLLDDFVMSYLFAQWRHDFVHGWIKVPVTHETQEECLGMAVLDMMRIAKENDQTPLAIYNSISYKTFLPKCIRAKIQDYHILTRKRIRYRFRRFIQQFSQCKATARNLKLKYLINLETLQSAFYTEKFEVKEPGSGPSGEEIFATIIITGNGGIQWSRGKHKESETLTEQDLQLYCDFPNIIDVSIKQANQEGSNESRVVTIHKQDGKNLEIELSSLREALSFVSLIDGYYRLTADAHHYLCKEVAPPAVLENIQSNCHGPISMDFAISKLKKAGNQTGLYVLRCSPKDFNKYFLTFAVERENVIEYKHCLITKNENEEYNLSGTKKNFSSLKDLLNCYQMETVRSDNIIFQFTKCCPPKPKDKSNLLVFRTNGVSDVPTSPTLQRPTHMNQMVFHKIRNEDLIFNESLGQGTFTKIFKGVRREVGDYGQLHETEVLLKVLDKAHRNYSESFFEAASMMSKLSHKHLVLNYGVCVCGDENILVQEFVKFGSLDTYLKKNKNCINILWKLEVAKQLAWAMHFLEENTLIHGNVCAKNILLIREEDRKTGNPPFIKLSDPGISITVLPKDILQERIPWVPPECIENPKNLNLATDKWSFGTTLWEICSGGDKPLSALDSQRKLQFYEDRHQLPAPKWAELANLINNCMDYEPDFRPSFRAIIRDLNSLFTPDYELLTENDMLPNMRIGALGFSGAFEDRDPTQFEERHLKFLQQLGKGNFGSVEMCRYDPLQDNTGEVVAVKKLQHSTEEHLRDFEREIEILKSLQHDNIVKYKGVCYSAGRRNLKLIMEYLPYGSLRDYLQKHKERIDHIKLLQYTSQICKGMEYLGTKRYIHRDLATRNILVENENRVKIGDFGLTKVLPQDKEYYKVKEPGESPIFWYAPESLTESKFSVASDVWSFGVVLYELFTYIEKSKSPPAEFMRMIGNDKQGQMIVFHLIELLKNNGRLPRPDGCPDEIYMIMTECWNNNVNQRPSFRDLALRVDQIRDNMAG
Sequence of CDK5 (Q00535 whole entry): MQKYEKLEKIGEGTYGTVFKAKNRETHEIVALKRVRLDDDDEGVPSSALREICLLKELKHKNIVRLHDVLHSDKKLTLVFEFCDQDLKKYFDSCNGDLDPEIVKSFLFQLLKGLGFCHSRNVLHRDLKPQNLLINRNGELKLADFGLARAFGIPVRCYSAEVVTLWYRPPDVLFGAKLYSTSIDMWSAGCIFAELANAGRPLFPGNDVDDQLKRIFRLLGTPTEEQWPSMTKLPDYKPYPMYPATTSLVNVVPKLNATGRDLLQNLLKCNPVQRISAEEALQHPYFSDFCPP
Sequence of MARK1 (Q9P0L2 whole entry): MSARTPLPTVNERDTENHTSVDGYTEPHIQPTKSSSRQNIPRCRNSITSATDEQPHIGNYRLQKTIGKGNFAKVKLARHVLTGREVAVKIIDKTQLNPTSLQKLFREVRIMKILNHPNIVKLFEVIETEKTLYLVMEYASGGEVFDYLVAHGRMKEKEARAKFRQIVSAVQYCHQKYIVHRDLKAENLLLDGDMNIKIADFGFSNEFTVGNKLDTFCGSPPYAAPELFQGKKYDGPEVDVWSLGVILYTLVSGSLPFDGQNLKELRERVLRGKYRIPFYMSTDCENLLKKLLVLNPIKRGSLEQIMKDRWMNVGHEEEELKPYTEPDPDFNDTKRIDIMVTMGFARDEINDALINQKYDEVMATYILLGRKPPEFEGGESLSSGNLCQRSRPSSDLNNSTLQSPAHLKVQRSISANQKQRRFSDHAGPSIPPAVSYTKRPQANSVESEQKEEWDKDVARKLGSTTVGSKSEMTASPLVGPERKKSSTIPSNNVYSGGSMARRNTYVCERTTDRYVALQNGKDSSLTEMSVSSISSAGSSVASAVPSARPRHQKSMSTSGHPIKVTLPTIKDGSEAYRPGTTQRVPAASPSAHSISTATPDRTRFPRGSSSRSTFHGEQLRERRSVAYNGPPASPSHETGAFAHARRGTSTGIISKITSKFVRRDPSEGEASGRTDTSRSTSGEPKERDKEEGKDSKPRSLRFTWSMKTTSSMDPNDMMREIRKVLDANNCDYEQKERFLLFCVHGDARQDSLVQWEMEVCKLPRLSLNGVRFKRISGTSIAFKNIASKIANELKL

Oc1ccc(C2=Cc3ccc(O)cc3OC2)cc1 [compound 1, idronoxil]
remaining binding at 10 µM [1]: 32%
remaining binding at 10 µM [2]: 100%
remaining binding at 10 µM [3]: 99%
remaining binding at 10 µM [4]: 100%
remaining binding at 10 µM [5]: 59%
remaining binding at 10 µM [6]: 67%
remaining binding at 10 µM [7]: 88%
remaining binding at 10 µM [8]: 95%
remaining binding at 10 µM [9]: 81%
remaining binding at 10 µM [10]: 93%
remaining binding at 10 µM [11]: 91%
remaining binding at 10 µM [12]: 69%
remaining binding at 10 µM [13]: 100%
remaining binding at 10 µM [14]: 97%
remaining binding at 10 µM [15]: 78%
remaining binding at 10 µM [16]: 53%
remaining binding at 10 µM [17]: 77%
remaining binding at 10 µM [18]: 40%
remaining binding at 10 µM [19]: 77%
remaining binding at 10 µM [20]: 68%
